This is an account of results in article PMC11056026, “The Evaluation of Teleost-Derived Antimicrobial Peptides Against Neisseria gonorrhoeae” (Cureus, 2024).

In data set [1] the test system is Neisseria gonorrhoeae MS11 adherence to ME180 endocervical epithelial cells. Nature of the data set: Adherence assay of GC to ME180 cells. The format is cell-based. The following applies: MS11 on ME180 cells, azithromycin 0.5 μg/mL, three hours. The procedure: Cells were then lysed with 1% saponin in sterile phosphate-buffered saline (PBS) and spread onto the GCK agar plate. The number of adherent GC was counted to determine the effect of AMP.
Non-treated GC was served as control (Ct).
To assess the effects of AMP on adherence, MS11 was inoculated onto ME180 cells in the presence or absence of AMP for three hours. The cells were then collected and plated on GCK agar. Adherent GC were determined by colony counts. Azithromycin was used as a control for comparison.

Data set [2] relates to Neisseria gonorrhoeae MS11 strain. Description: Antibiotic susceptibility testing, disk diffusion (CLSI). The format is cell-based. Set-up: key: R, resistant; I, intermediate; S, susceptible. Conditions: CLSI criteria, 24 h, 37°C, 5% CO2. The procedure: (§1) Briefly, the overnight colonies (16-20 hours) were suspended and diluted in GCP broth to a concentration of optical density (OD) = 0.1 at 650 nm. The bacterial suspension was then plated onto GC agar plates using swabs, and the disks were placed on the bacterial lawn with sterile tweezers. The plates were incubated at 37°C with 5% CO2 for 24 hours. The diameter of the inhibition zone was measured to determine the susceptibility according to the criteria recommended by the CLSI standard.
On the technique in general: Agar diffusion results depend on both activity and mobility in agar.

Data set [3] deals with Neisseria gonorrhoeae MS11. Description: Transmission electron microscopy of treated GC. Type of data set: cell-based. The following applies: AMP 10 μg/mL or azithromycin 0.5 μg/mL, four hours. The source says:
The bars represented the means of each group with standard deviations.

In data set [4] the test system is WHO gonococcal reference strain Z (WHO Z). Nature of the data set: Antibiotic susceptibility testing, disk diffusion (CLSI). Set-up: key: R, resistant; I, intermediate; S, susceptible. The following applies: CLSI criteria, 24 h, 37°C, 5% CO2. The format is cell-based, Neisseria gonorrhoeae. The procedure:
as §1

Data set [5] has as its system Neisseria gonorrhoeae MS11 strain. The following applies: 24 h. The procedure:
(§2) The synthetic AMP (Table 1) were purchased (Mission Bio, Taipei, Taiwan), and the inhibition activity test against GC was adapted from Bergman et al.. Briefly, GC were suspended in GCP broth to a concentration of 105 colony-forming units (CFU)/mL, and 180 μL of this suspension was added to each well of a 96-well plate with 20 μL peptide solution at various concentrations. The final concentration of AMP in each well ranged from 0.08 to 20 μg/mL. The samples were incubated at 37°C with 5% CO2 for 24 hours. After the incubation, 10 μL of the suspension from each well was spotted on GCK agar plates.

In data set [6] the test system is WHO gonococcal reference strain Z (WHO Z). Conditions: GCP broth, 10^5 CFU/mL, 24 h, 37°C, 5% CO2, lowest concentration reducing >=90% of bacteria vs non-AMP control, means of three independent experiments. The procedure:
as §2

The test system of data set [7] is Vibrio spp. Conditions: 100 μg/mL or above; cited from earlier work. From the text:
(§3) [26], indicating the low efficacy of TH1-5. Piscidins were reported widely as the broadest teleost-derived AMP against several gram-positive and gram-negative species.

The subject of data set [8] is Listeria monocytogenes. Conditions: cited from earlier work.
From the text: as §3

The subject of data set [9] is ME180 endocervical epithelial cells. The following applies: 24 hours; for Cell survival of ME180 cells vs non-treatment control (CCK-8): 10 μg/mL AMP, three independent experiments. The procedure:
ME180 cells were seeded into 96-well microtiter plates at a 5 × 10^3 cells/well density and incubated for 24 hours. A final concentration of 10 μg/mL of AMP and 0.1% of positive control Triton-X were added to the well and incubated for 24 hours. Next, the Cell Counting Kit-8 (CCK-8) solution (Tools Biotech Inc., New Taipei City, Taiwan) was added and incubated for one hour. The absorbance at 450 nm was measured in each well, and the cytotoxicity level was analyzed according to the manufacturer's instructions.
GC colonization and infection only start after the GC's adherence to epithelial cells in the reproductive tract. Thus, adherence plays a crucial role in the initial colonization of GC on mucosal surfaces. […] Since these AMP may also affect epithelial cell viability, examining the effects of three AMP on both epithelial cells, and GC adherence is needed. To examine the effects of AMP on epithelial cells, ME180 cells were incubated with or without 10 μg/mL AMP for 24 hours, and the CCK-8 cell viability assay was conducted. Triton-X, a membrane-disrupting agent at a final concentration of […], was administered as a positive control.
ME180 cells were grown on a 96-well plate, and 10 μg/mL of designated AMP was added with or without inoculating MS11. (A) To measure cell cytotoxicity, cells with or without AMP or 0.1% Triton-X were incubated for 24 hours, and CCK-8 assay was performed to determine the cell survival rate. (B) To evaluate GC adherence, cells with MS11 were incubated for three hours to determine the adherent GC. GC treated with 0.5 μg/mL of azithromycin (AZI) served as a positive control. Non-treated GC was served as control (Ct). The bars represented the means of each group with standard deviations. Statistical significance was determined using a one-way ANOVA followed by post hoc Dunnett's test.

Data set [10] deals with HeLa cells. Conditions: cited from earlier work.
Data set [11] deals with HT1080 cells. Conditions: HT1080, 15 μg/mL or more; cited from earlier work.

Read-outs that look alike come from different tables or passages of the source. Residues, ends and D or L forms follow the SMILES beside them. No end group written: not given here. Where only a bound is given, the exact number is not on record here.

As to `CC[C@H]1OC(=O)[C@H](C)[C@@H](O[C@H]2C[C@@](C)(OC)[C@@H](O)[C@H](C)O2)[C@H](C)[C@@H](O[C@@H]2O[C@H](C)C[C@H](N(C)C)[C@H]2O)[C@](C)(O)C[C@@H](C)CN(C)[C@H](C)[C@@H](O)[C@]1(C)O` [Azithromycin], the “Reduction of adherent GC compared to the AMP-treated group” value in [1] is on record as “significantly higher reduction”. For the same compound, the Antibiotic susceptibility entry in [2] is “S”; in [4], “R”. Moreover, in [3], the “Morphological and structural changes of GC (TEM)” value was “intact membranes”.
For `CO/N=C(\C(=O)N[C@@H]1C(=O)N2C(C(=O)O)=C(CSc3nc(=O)c(=O)[nH]n3C)CS[C@H]12)c1csc(N)n1` [Ceftriaxone], the Antibiotic susceptibility entry was “S” in data set [2] and “I” in data set [4].
Turning to `CC[C@H](C)[C@H](NC(=O)CNC(=O)[C@@H]1CCCN1C(=O)[C@@H](NC(=O)[C@H](CS)NC(=O)[C@H](CS)NC(=O)CNC(=O)[C@H](CS)NC(=O)[C@H](CS)NC(=O)[C@H](Cc1ccccc1)NC(=O)[C@H](CCCNC(=N)N)NC(=O)[C@H](CS)NC(=O)[C@H](CCCCN)NC(=O)[C@@H](NC(=O)CN)[C@@H](C)CC)[C@@H](C)O)C(=O)N[C@@H](CS)C(=O)NCC(=O)N[C@H](C(=O)N[C@@H](CS)C(=O)N[C@@H](CS)C(=O)N[C@@H](CCCNC(=N)N)C(=O)N[C@@H](Cc1ccccc1)C(=O)O)C(C)C` [TH1-5] (H-GIKCRFCCGCCTPGICGVCCRF-OH; N-terminus and C-terminus assumed), the “MIC of AMP” value in data set [5] (MS11 strain, GCP broth, 10^5 CFU/mL, 37°C, 5% CO2, lowest concentration reducing >=90% of bacteria vs non-AMP control, means of three independent experiments) was greater than 10 µg/mL; in data set [6] it was greater than 20 µg/mL. The Antibacterial activity entry in [7] is on record as “not”. For the same compound, the “Concentration exhibiting antibacterial activity” value in data set [8] was no less than 100 µg/mL.
Consider `CC(C)(C)CC(C)(C)c1ccc(OCCO)cc1` [Triton-X, reference compound], for which the “Decrease in cell survival of ME180 cells (CCK-8)” value in data set [9] (positive control, final concentration of 0.01% (0.1% elsewhere in the source)) is recorded as 88%.
Regarding “FFHHIFRGIVHVGKTIHRLVTG [PIS] [listing 1 of 2 here]”, the “MIC of AMP” value in data set [6] was 10 µg/mL.
As for “FFHHIFRGIVHVGKTIHRLVTG [PIS] [listing 2 of 2 here]”, the “Cell survival of ME180 cells vs non-treatment control (CCK-8)” value in data set [9] was “No significant difference”.
With “FIHHIIGGLFSAGKAIHRLIRRRRR [TP4] [listing 1 of 2 here]”, in [6], the “MIC of AMP” value amounted to 10 µg/mL.
For “FIHHIIGGLFSAGKAIHRLIRRRRR [TP4] [listing 2 of 2 here]”, in [9], the “Cell survival of ME180 cells vs non-treatment control (CCK-8)” value was “No significant difference”.
Turning to FIHHIIGGLFSVGKHIHSLIHGH [TP3], the “MIC of AMP” value was greater than 10 µg/mL in data set [5] and greater than 20 µg/mL in [6].
In the case of Pardaxin, the Concentration inhibiting cells in [10] is no less than 15 µg/mL. Also, the Inhibition of cells result in data set [11] was “not”.
